Experimental findings from ChEMBL document CHEMBL1157146, “Structure-activity relationship of human GLO I inhibitory natural flavonoids and their growth inhibitory effects” (Bioorg Med Chem, 2008) are described below.

Molecules are shown by their SMILES. Calls of active or inactive are those of the source. The rule behind the calls is not given here.

The term IC50 denotes the midpoint of a concentration-inhibition curve. One may read the inhibition as the share of the control response that was lost under treatment.

In one assay the target is T1, Lactoylglutathione lyase (Homo sapiens, UniProt Q04760). The experiment in a line: Inhibition of human recombinant His-tagged Glyoxalase 1 expressed in Sf21-Baculovirus system.
Target sequence in this assay (Q04760 whole entry): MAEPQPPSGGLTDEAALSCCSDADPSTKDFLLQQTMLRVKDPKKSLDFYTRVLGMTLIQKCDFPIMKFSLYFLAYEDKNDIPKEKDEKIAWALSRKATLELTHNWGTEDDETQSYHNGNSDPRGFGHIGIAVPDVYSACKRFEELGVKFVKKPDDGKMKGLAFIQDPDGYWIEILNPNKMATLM
As to `O=c1cc(-c2ccccc2)oc2cc(O)c(O)c(O)c12` [BAICALEIN], the IC50 is 11 µM.
The same measure, in the same setting: as for `O=c1c(O)c(-c2ccc(O)cc2)oc2cc(O)cc(O)c12` [KAEMPFEROL], the figure is 20.6 µM.
Consider `O=c1cc(-c2ccc(O)c(O)c2)oc2cc(O)cc(O)c12` [LUTEOLIN], for which the IC50 stood at 7.7 µM.

A further assay concerns the target T1, Lactoylglutathione lyase. Briefly: Inhibition of human recombinant His-tagged Glyoxalase 1 expressed in Sf21-Baculovirus system at 100 uM.
Target sequence in this assay (Q04760 2-184 limits assumed): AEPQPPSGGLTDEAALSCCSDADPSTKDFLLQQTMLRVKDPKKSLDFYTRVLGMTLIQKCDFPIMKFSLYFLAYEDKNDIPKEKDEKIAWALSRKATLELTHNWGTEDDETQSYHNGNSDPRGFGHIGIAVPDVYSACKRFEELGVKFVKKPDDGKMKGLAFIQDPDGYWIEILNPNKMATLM
`O=c1c(O)c(-c2ccc(O)cc2)oc2cc(O)cc(O)c12` [KAEMPFEROL]: the inhibition turned out to be 60%.
On to `O=C1C[C@@H](c2ccc(O)cc2)Oc2cc(O)cc(O)c21`, for which the inhibition amounted to 50%.

In a further assay the test system is HL-60. Briefly: Antiproliferative activity against human HL60 cells at 30 uM after 48 hrs by MTS assay. It is filed as functional, cell-based. On the technique in general: Formazan colour is commonly taken as a measure of viable cells.
For the compound `N[C@@H](CCC(=O)N[C@@H](CSCc1ccc(Br)cc1)C(=O)NCC(=O)OC1CCCC1)C(=O)OC1CCCC1`, the outcome was Active.
For `O=c1cc(-c2ccccc2)oc2cc(O)c(O)c(O)c12` [BAICALEIN], the outcome was Active.
Consider `O=c1c(O)c(-c2ccc(O)cc2)oc2cc(O)cc(O)c12` [KAEMPFEROL], for which the outcome was Active.
`O=C1C[C@@H](c2ccc(O)cc2)Oc2cc(O)cc(O)c21`: the outcome was Active.
Turning to `O=c1cc(-c2ccc(O)c(O)c2)oc2cc(O)cc(O)c12` [LUTEOLIN], the result was Active.
For `O=c1c(O)c(-c2ccc(O)c(O)c2)oc2cc(O)cc(O)c12`, the outcome was Active.
For the compound `COc1c(O[C@H]2O[C@H](C(=O)O)[C@@H](O)[C@H](O)[C@H]2O)cc2oc(-c3ccccc3)cc(=O)c2c1O`, the result was Active.
For `O=C(O)[C@H]1O[C@@H](Oc2cc3oc(-c4ccccc4)cc(=O)c3c(O)c2O)[C@H](O)[C@@H](O)[C@@H]1O`, the outcome was Active.
Take `O=c1c(O[C@@H]2O[C@H](CO)[C@H](O)[C@H](O)[C@H]2O)c(-c2ccc(O)c(O)c2)oc2cc(O)cc(O)c12`: the result was Active.
On to `O=c1c(O)c(-c2cc(O)c(O)c(O)c2)oc2cc(O)cc(O)c12`, for which the result was Active.
